What was measured:
Format in all cases: physicochemical
[1] = Evaluation of solid stability (impurity content by HPLC after preservation); conditions: for impurity content (%): HPLC 226 nm
Description: The solid obtained in Example 1 or Comparative Example 1 was preserved for 3 months under the following 3 kinds of preservation conditions. The absorbance at wavelength 226 nm was measured by high performance liquid chromatography (HPLC), and the content of impurity contained in the crystal was measured every other month.
From the peak area of the obtained chromatogram, a value obtained by dividing the total area of respective peaks other than the peak showing compound 1, by the total area of all the obtained peaks, from the peaks contained in the above-mentioned solid, was taken as impurity content (%), and is shown in Table 5.

[2] = Hygroscopicity evaluation by dynamic water adsorption measuring apparatus; conditions: 25° C., relative humidity range of 35-75% RH
Description: The hygroscopicity of crystal A obtained in Example 1 was evaluated by a dynamic water adsorption measuring apparatus. A sample mounting part of the apparatus was maintained at 25° C., and the relative humidity (RH) was set stepwisely within the range of 5-95% RH. The humidity was controlled by changing the relative flow of 0% RH dry nitrogen and 100% RH humidified nitrogen. The sample weight was confirmed at for 2 min intervals by a micro balance, and the humidity was sequentially changed at the time point when the weight shift range for 5 min was below 0.01%.

[3] = Evaluation of thermal stability by X-ray-DSC
Description: Using X-ray diffraction-differential scanning simultaneous calorimetry apparatus (X-ray-DSC), whether the crystal form of crystal A obtained in Example 1 changes upon heating was observed.
When the temperature was around 90° C., the weight of crystal A decreased, and the powder X-ray diffraction pattern changed clearly.

[4] = Heating of crystal in an oven; conditions: oven at 50° C. overnight
From the text: First, an amorphous form of compound 1 is explained. Compound 1 can be produced by synthesize according to the method described in patent document 1.

[5] = preserved at 40° C./75% RH, 1 month later
[6] = preserved at 40° C./75% RH, 2 months later
[7] = preserved at 40° C./75% RH, 3 months later
[8] = preserved at 60° C., 1 month later
[9] = preserved at 60° C., 2 months later
[10] = preserved at 60° C., 3 months later
[11] = preserved at −20° C., 1 month later
[12] = preserved at −20° C., 2 months later
[13] = preserved at −20° C., 3 months later
[14] = heated from 40° C. to 100° C. at 1° C./min

Structure (SMILES)	increase in the impurity content as compared to preservation at −20° C. ([1]; 40° C., 75% RH, 3 months later)	increase in the impurity content as compared to preservation at −20° C. ([1]; 60° C., 3 months later)	impurity content (%) [1, 5]	impurity content (%) [1, 6]	impurity content (%) [1, 7]	impurity content (%) [1, 8]	impurity content (%) [1, 9]	impurity content (%) [1, 10]	impurity content (%) [1, 11]	impurity content (%) [1, 12]	impurity content (%) [1, 13]	hygroscopicity [2]	weight change at the maximum [2]	powder X-ray diffraction pattern at the endothermic peak (desorption of hydrated water) ([3]; 43° C.-48° C., heated at 1° C./min)	temperature at which weight decreased and powder X-ray diffraction pattern changed clearly [3, 14]	thermal stability [3, 14]	solid stability compared with amorphous form ([1]; high temperature conditions and high humidity conditions, 3 months)	change of solid form on heating [4]
C[C@H]1C2N(C(=O)CN(C)N2C(=O)NCc2ccccc2)[C@@H](Cc2ccc(OP(=O)(O)O)cc2)C(=O)N1Cc1cccc2cccnc12 (stereo partly drawn) [Comparative Example 1, 4-(((6S,9S)-1-(benzylcarbamoyl)-2,9-dimethyl-4,7-dioxo-8-(quinolin-8-ylmethyl)octahydro-1H-pyrazino[2,1-c][1,2,4]triazin-6-yl)methyl)phenyl dihydrogen phosphate]	about 4%	not less than 1.1%	3.35%	4.62%	6.51%	3.10%	3.41%	3.68%	2.46%	2.60%	2.57%	–	–	–	–	–	–	–
C[C@H]1C2N(C(=O)CN(C)N2C(=O)NCc2ccccc2)[C@@H](Cc2ccc(OP(=O)(O)O)cc2)C(=O)N1Cc1cccc2cccnc12 (stereo partly drawn) [Example 1, 4-(((6S,9S)-1-(benzylcarbamoyl)-2,9-dimethyl-4,7-dioxo-8-(quinolin-8-ylmethyl)octahydro-1H-pyrazino[2,1-c][1,2,4]triazin-6-yl)methyl)phenyl dihydrogen phosphate]	about 1.6%	not more than 0.5%	0.65%	1.02%	1.80%	0.53%	0.59%	0.72%	0.24%	0.17%	0.24%	low hygroscopicity	about 2.5%	did not change	around 90 °C	thermally stable	more stable than the amorphous form of Comparative Example 1	–
C[C@H]1C2N(C(=O)CN(C)N2C(=O)NCc2ccccc2)[C@@H](Cc2ccc(OP(=O)(O)O)cc2)C(=O)N1Cc1cccc2cccnc12 (stereo partly drawn) [Example 2, 4-(((6S,9S)-1-(benzylcarbamoyl)-2,9-dimethyl-4,7-dioxo-8-(quinolin-8-ylmethyl)octahydro-1H-pyrazino[2,1-c][1,2,4]triazin-6-yl)methyl)phenyl dihydrogen phosphate]	–	–	–	–	–	–	–	–	–	–	–	–	–	–	–	–	–	changes into an amorphous form

Source: patent publication US20160318957A1, “CRYSTAL (1) OF PYRAZINO[2,1-c][1,2,4]TRIAZINE COMPOUND” (PRISM PHARMA CO., LTD., priority 2013, published 2016)
